Results as given in patent US12329739B2, “Isoflavonoid compounds and methods for the treatment of cancer” (Aardvark Therapeutics, Inc., priority 2010, dated 2025).

Tests used:
MDA-MB-468 = assay: MTT proliferation assay, MDA-MB-468; assay type: cell-based, human
In short: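 MDA-MB-468 breast adenocarcinoma cells were grown in DMEM:F12 with added L-glutamine, then exposed to compound for 5 days (120 h). MTT was added for 5 h at 37 °C. IC50 came from semi-log plots of % control proliferation against log dose.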

A549 = assay: MTT proliferation assay, A549; assay type: cell-based; settings: Homo sapiens; NSCLC, A549, 120 h of exposure
Procedure: (§1) Proliferation Assays. IC50 values were determined for each cell line. Cells were seeded in 96-well plates at an appropriate cell density as determined from growth kinetics analysis and cultured for 5 days in the absence and presence of the test compounds. Cell proliferation was assessed after the addition of 20 μl of 3-4,5 dimethylthiazol-2,5-diphenyl tetrazolium bromide (MTT, 5 mg/ml in PBS, Sigma) for 5 hrs at 37° C. according to manufacturer's instructions. IC50 values were calculated from semi-log plots of % of control proliferation on the y-axis against log dose on the x-axis.
(§2) Anti-proliferative Activity of Isoflavonoid Derivatives. IC50 values were determined for each cell line after 120 h of exposure.

SKBR-3 = assay: MTT proliferation assay, SKBR-3; assay type: cell-based, human
In short: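 SK-BR-3 breast adenocarcinoma cells in McCoy's 5a medium were exposed to compounds for 5 days (120 h). Proliferation was read by MTT over 5 hrs at 37° C. IC50 came from semi-log plots of % control proliferation against log dose.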

HepG2 = assay: MTT proliferation assay, HepG2; assay type: cell-based, human; settings: Homo sapiens; Liver, HepG2, 120 h of exposure
Procedure: (§3) The human hepatocellular carcinoma lines HepG2 (HB-8065), SK-HEP-1 (HTB-52) and the normal human lung fibroblast line IMR-90 (CCL-186) were cultured in Minimum Essential Eagles Medium containing 2 mM L-glutamine, 2.2 g/L sodium bicarbonate, supplemented with 1 mM sodium pyruvate and 0.1 mM non-essential amino acids. The human hepatocellular carcinoma line JHH-1 (JCRB1062) was cultured in Williams E Medium (Invitrogen) containing 2.2 g/L sodium bicarbonate, supplemented with 2 mM L-glutamine. The hepatocellular carcinoma line HuH-7 (JCRB0403) was cultured in DMEM, supplemented with 2 mM L-glutamine.
as §1, §2

A2780 = assay: MTT proliferation assay, A2780; assay type: cell-based
In short: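 Growth is compared with untreated wells after 120 h of drug treatment, using MTT (5 hrs, 37° C) as the viability signal; IC50 is interpolated from log dose-response plots.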

R-182 = assay: MTT proliferation assay, R-182; assay type: cell-based; settings: Ovarian, R-182, 120 h of exposure
Source text: Tissue culture. The multidrug resistant primary epithelial ovarian cancer cell line R-182 TARA was a gift from Dr. Gil Mor (Yale University, New Haven, CT, USA). This cell line was derived by explant from ovarian tumors and cultured as previously described. All other cell lines were purchased from American Type Culture Collection (ATCC, Manassas, VA, USA) with the exception of MKN1, HuH-7, JHH-1, which were purchased from the Japanese Collection of Research Bioresources (JCRB, Osaka, Japan), and OE19 which was purchased from the European Collection of Cell Cultures (ECACC, Salisbury, UK).
as §1, §2

SK-Hep-1 = assay: MTT proliferation assay, SK-Hep-1; assay type: cell-based, human; settings: Homo sapiens, SK-HEP1; Liver, SK-Hep-1, 120 h of exposure
Procedure: as §3, §1, §2

MM2200 = assay: MTT proliferation assay, MM2200; assay type: cell-based; settings: Table 2, Melanoma, MM2200, 120 hrs of exposure
Procedure: as §1, §2
Activity data is provided is Table 2.

4405 = assay: MTT proliferation assay, 4405; assay type: cell-based; settings: Melanoma, 4405, 120 h of exposure
Procedure: as §1, §2

LNCaP = assay: MTT proliferation assay, LNCaP; assay type: cell-based; settings: Homo sapiens, Prostate, 120 h of exposure
Procedure: as §1, §2

IC50 (MDA-MB-468; Homo sapiens, MDA-MB-468, 120 h, Breast, MDA-MB-468, 120 h of exposure): ≤ 150 nM
IC50 (MDA-MB-468; Table 2, Breast, MDA-MB-468, 120 hrs of exposure): ≤ 150 nM
IC50 (A549): 510 to 1500 nM
IC50 (SKBR-3; Homo sapiens, SK-BR-3, 120 h, Breast, SKBR-3, 120 h of exposure): ≤ 150 nM
IC50 (SKBR-3; Table 2, Breast, SKBR-3, 120 hrs of exposure): ≤ 150 nM
IC50 (HepG2): 150 to 500 nM
IC50 (A2780; Homo sapiens, A2780, 120 h, Ovarian, A2780, 120 h of exposure): 150 to 500 nM
IC50 (A2780; Table 2, Ovarian, A2780, 120 hrs of exposure): 150 to 500 nM
IC50 (SK-Hep-1): 150 to 500 nM
IC50 (LNCaP): 150 to 500 nM
SMILES: Oc1ccc([C@H]2c3ccc(O)cc3OC[C@H]2c2ccc(O)cc2)cc1 [Compound 31, d-cis-3-(4-hydroxyphenyl)-4-(4-hydroxyphenyl)chroman-7-ol]
anti-proliferative activity against various cancer cells compared with racemic (compound 32) and l-form (compound 33) (A2780; 120 hrs of exposure, various cancer cells (Table 2)): superior anti-proliferative activity
IC50 (R-182): ≤ 150 nM
IC50 (MM2200): 510 to 1500 nM
IC50 4405: 150 to 500 nM
